According to patent US20080095826A1, “Method of Increasing Peripheral Blood Lymphocytes” (priority 2006, published 2008):
Several values for one entry are separate records, joined by “and”; a condition that tells them apart may be missing. Equal values may be shown once.

How the values were obtained:
Format in all cases: in vivo, human
[1] = system: Hospitalized elderly test subjects; assay: Assessment of general condition by a nurse or care assistant (Table 2)
Experimental: (§1) In the test of Example 1, the test subject was assessed by a nurse or a care assistant for the improvement of the general condition between immediately before the start of the administration of the rice gruel containing a salt of glutamic acid e and 2 months thereafter. The test subjects took the Hasegawa Dementia Scale-Revised for the following 9 items immediately before the administration and 2 months thereafter.

[2] = system: Hospitalized elderly test subjects; assay: Hasegawa Dementia Scale-Revised; conditions: before vs 2 months after intake; particularly for the items relating to speech; FIG. 3
Experimental: as §1
2. what year, what month, what date, what day of the week?
5. continue to subtract 7 from 100
6. say numbers in reverse order
7. read out from memory of item 4
9. say name of vegetables.

[3] = system: Hospitalized elderly test subjects; assay: Rice gruel with monosodium glutamate monohydrate fed to hospitalized elderly for 2 months; blood indices, eating ratio; conditions: Friedman test, p<0.05, FIG. 1
Experimental: Monosodium glutamate monohydrate was added to rice gruel to 0.5 wt %.
Hospitalized elderly test subjects (n=11 (2 males, 9 females), average age of 85.8±8.2, average body weight of 39.7±5.7 kg), were fed the above-mentioned rice gruel with glutamic acid 3 times a day for 2 months, establishing a continuous administration of 0.8 g on average of monosodium glutamate monohydrate per meal.
From 1 month before the start of administration to 2 months after the start of administration, the eating ratio (ratio of weight of food actually eaten to weight of provided food) was measured. Blood samples were collected early in the morning immediately before the start of administration, 1 month after the start of adminstration, 2 months after the start of administration, and 1 month after the completion of administration, and the blood indices were measured. In addition, the body weight was measured.

[4] = of 11 test subjects, before vs 2 months after start of administration

## N[C@@H](CCC(=O)O)C(=O)[O-].O.[Na+] [monosodium glutamate monohydrate, Monosodium glutamate monohydrate]
[1]; almost all test subjects, 2 months after start of administration
  mind and body conditions such as speech recovery, expression of emotion: tendency toward improvement
[1]; [4]
  Brighter facial expression: number of test subjects marked ◯: 8
  Clearer articulation: number of test subjects marked ◯: 7
  Eating by tightly holding a spoon: number of test subjects marked ◯: 2
  Establishment of conversation: number of test subjects marked ◯: 4
  Eyes can be opened wide: number of test subjects marked ◯: 6
  Louder voice: number of test subjects marked ◯: 4
  Outward facial expression (delight, anger, sorrow and pleasure): number of test subjects marked ◯: 6
  Recognition of meal: number of test subjects marked ◯: 3
  Recovery of memory: number of test subjects marked ◯: 2
  Use of voice: number of test subjects marked ◯: 4
[1]; one value per individual test subject (No. 6598, 7012, 7020, 6342, 6990, 5039, 7082, 7142, 6957, 5742, 6362), 2 months, monohydrate
  1 point for ◯, total points (scale of one to ten): 7 points and 3 points (5×) and 10 points and 2 points (2×) and 6 points and 4 points
[2]
  Hasegawa Dementia Scale-Revised grade points: grade points increased
[3]; 1 month after completion of administration compared to during administration
  peripheral lymphocyte count: significantly decreased
[3]; during 2 months of administration, 0.8 g per meal 3 times a day
  peripheral lymphocyte count: increased significantly
